Test results as given in patent US20060167048A1, “N-4-piperidinyl compounds as ccr5 modulators” (priority 2002, published 2006).

Tests used:
[1] = target: recombinant human CCR5 receptor (Homo sapiens, UniProt P51681); experiment: in vitro radioligand binding assay, inhibition of binding of iodinated RANTES or MIP-1α (scintillation proximity); conditions: membranes from Chinese hamster ovary cells expressing recombinant human CCR5; 0.1 nM iodinated RANTES or MIP-1α; read-out: IC50 (concentration of compound which displaced 50% of bound iodinated RANTES or MIP-1α)
Protocol: The ability of compounds to inhibit the binding of RANTES or MIP-1α was assessed by an in vitro radioligand binding assay. Membranes were prepared from Chinese hamster ovary cells which expressed the recombinant human CCR5 receptor. These membranes were incubated with 0.1 nM iodinated RANTES or MP-1α, scintillation proximity beads and various concentrations of the compounds of the invention in 96-well plates. The amount of iodinated RANTES or MIP-1α bound to the receptor was determined by scintillation counting. Competition curves were obtained for compounds and the concentration of compound which displaced 50% of bound iodinated RANTES or MIP-1α was calculated (IC50).

recombinant human CCR5 receptor, sequence (P51681 whole entry): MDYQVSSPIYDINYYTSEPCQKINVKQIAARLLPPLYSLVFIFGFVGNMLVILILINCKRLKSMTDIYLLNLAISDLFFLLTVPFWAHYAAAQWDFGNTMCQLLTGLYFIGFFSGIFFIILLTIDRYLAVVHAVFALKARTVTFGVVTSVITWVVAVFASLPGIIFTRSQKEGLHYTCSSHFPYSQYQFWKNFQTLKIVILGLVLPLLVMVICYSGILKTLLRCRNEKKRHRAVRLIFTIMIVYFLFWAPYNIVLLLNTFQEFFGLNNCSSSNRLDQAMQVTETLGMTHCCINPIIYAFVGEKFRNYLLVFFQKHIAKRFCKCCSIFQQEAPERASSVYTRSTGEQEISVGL

Structure (SMILES) | IC50 [1] | melting point
CCN(C(=O)Cc1ccc(S(C)(=O)=O)cc1)C1CCN(CC[C@H](NC(=O)C2CCN(C(C)=O)CC2)c2ccccc2)CC1 [Compound 1 of Table I, (S)-1-acetyl-piperidine-4-carboxylic acid [3-(4-{ethyl-[2-(4-methanesulfonyl-phenyl)-acetyl]-amino}-piperidin-1-yl)-1-phenyl-propyl]-amide] | 39 nM | –
CCN(C(=O)Cc1ccc(S(C)(=O)=O)cc1)C1CCN(CC[C@H](NC(=O)OCCOC)c2ccccc2)CC1 [Compound 3 of Table II] | 110 nM | –
CCN(C(=O)Cc1ccc(S(C)(=O)=O)cc1)C1CCN(CC[C@H](NC(=O)OC(C)(C)C)c2ccccc2)CC1 [Compound 1 of Table II, (S)-[3-(4-{ethyl-[2-(4-methanesulfonyl-phenyl)-acetyl]-amino}-piperidin-1-yl)-1-phenyl-propyl]-carbamic acid tert-butyl ester] | – | 115 to 116 °C
CCN(C(=O)Cc1ccc(S(C)(=O)=O)cc1)C1CCN(CC[C@H](NC(=O)C2CCN(S(C)(=O)=O)CC2)c2ccccc2)CC1 [Compound 5 of Table I] | 28 nM | –
